Where only a bound is given, the exact number is not on record here.

The test system of series [1] is Peripheral blood mononuclear cells (PBMC). The format is cell-based. To be noted: human, 7 days. The method in brief: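 Healthy-donor PBMC stimulated 2 days with 5 µg/mL PHA, then seeded at 1x10^5 cells/well in medium with 20 IU/mL IL-2 and exposed to compound for 7 days. Viability measured by MTS (4 h, OD 490 nm). TD50 interpolated from dose versus percent mortality relative to untreated cells.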

The target of the next series is NC(11-55) (Human immunodeficiency virus type 1, UniProt P12493). The series can be described thus: NC inhibition assay (NC-induced cTAR DNA destabilization, fluorescence). To be noted: single point screening; positive = >25% inhibition at 100µM. Type of series: biochemical, HIV-1. In outline: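 Doubly labelled cTAR (0.1 µM, Alexa488/Dabcyl) pre-complexed with 1 µM Zn-loaded NC(11-55) for 15 min, then compound added for a further 15 min; run at 20 °C in Tris-HCl pH 7.5, 30 mM NaCl, 0.2 mM MgCl2. Fluorescence read at ex 480/em 520 nm. IC50 taken from dose-response fit of % inhibition of NC-induced fluorescence increase.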

On to `Cc1ccnc(-c2nc(O)c(O)c(C(=O)NC3(C4CCCCC4)CC3)n2)c1` [Compound 84, N-(1-cyclohexylcyclopropyl)-5,6-dihydroxy-2-(4-methylpyridin-2-yl)pyrimidine-4-carboxamide], for which the “Proliferation assay PBMC TD50” value in series [1] was 3470 nM. Besides, on NC(11-55), the inhibition at 100 µM was above 25%.
In the same order, the values of `Cc1cc(-c2nc(O)c(O)c(C(=O)N[C@H](C)C3CCCCC3)n2)nc2ccccc12` [Compound 73, (R)-N-(1-cyclohexylethyl)-5,6-dihydroxy-2-(4-methylquinolin-2-yl)pyrimidine-4-carboxamide] are 5790 nM and above 25%.
The corresponding values for `C[C@H](NC(=O)c1nc(-c2cc3ccccc3cn2)nc(O)c1O)C1CCCCC1` [Compound 72, (S)-N-(1-cyclohexylethyl)-5,6-dihydroxy-2-(isoquinolin-3-yl)pyrimidine-4-carboxamide] are 2270 nM and above 25%.
With `CC(NC(=O)c1nc(-c2nccc3ccccc23)nc(O)c1O)C1CCC(F)(F)CC1` (stereo not shown) [Compound 90, N-(1-(4,4-difluorocyclohexyl)ethyl)-5,6-dihydroxy-2-(isoquinolin-1-yl)pyrimidine-4-carboxamide], the “Proliferation assay PBMC TD50” value in series [1] stood at 4270 nM. The compound further gave an inhibition at 100 µM against NC(11-55) above 25%.
The corresponding values for `C[C@H](NC(=O)c1nc(-c2ccc(C(=O)OCc3ccccc3)cn2)nc(O)c1O)C1CCCCC1` [Compound 70, benzyl (S)-6-(4-((1-cyclohexylethyl)carbamoyl)-5,6-dihydroxypyrimidin-2-yl)nicotinate] are 500 nM and above 25%.
In the same order, the values of `C[C@H](NC(=O)c1nc(-c2ccc3ccccc3n2)nc(O)c1O)C1CCCCC1` [Compound 75, (S)-N-(1-cyclohexylethyl)-5,6-dihydroxy-2-(quinolin-2-yl)pyrimidine-4-carboxamide] are 6900 nM and above 25%.
Regarding `C[C@@H](NC(=O)c1nc(-c2cc(C(=O)NCc3ccccc3)ccn2)nc(O)c1O)C1CCCCC1` [Compound 74, (R)-2-(4-(benzylcarbamoyl)pyridin-2-yl)-N-(1-cyclohexylethyl)-5,6-dihydroxypyrimidine-4-carboxamide], in series [1], the “Proliferation assay PBMC TD50” value is given as 1680 nM. Further, on NC(11-55), the inhibition at 100 µM was above 25%.
In the same order, the values of `C[C@H](NC(=O)c1nc(-c2cc(C(=O)OCc3ccccc3)ccn2)nc(O)c1O)C1CCCCC1` [Compound 71, benzyl (S)-2-(4-((1-cyclohexylethyl)carbamoyl)-5,6-dihydroxypyrimidin-2-yl)isonicotinate] are 1420 nM and above 25%.

In general, inhibition refers to the relative decrease from the control value, in per cent. Higher therefore signals strong suppression.

Values taken from EP3290412A1, “HIV-1 NUCLEOCAPSID INHIBITORS” (Università degli Studi di Siena, priority 2016, dated 2018).
